Values belong to the compound of their own block, whether it stands above or below them. Activity calls are given as the source filed them. No cut-off for these calls is given here.
Legend:
[1] = biological target: T1, Polyunsaturated fatty acid lipoxygenase ALOX12 (Homo sapiens, UniProt P18054); test: Inhibitory activity against human platelet 12-lipoxygenase (12-HLO)
T1 sequence (P18054 whole entry): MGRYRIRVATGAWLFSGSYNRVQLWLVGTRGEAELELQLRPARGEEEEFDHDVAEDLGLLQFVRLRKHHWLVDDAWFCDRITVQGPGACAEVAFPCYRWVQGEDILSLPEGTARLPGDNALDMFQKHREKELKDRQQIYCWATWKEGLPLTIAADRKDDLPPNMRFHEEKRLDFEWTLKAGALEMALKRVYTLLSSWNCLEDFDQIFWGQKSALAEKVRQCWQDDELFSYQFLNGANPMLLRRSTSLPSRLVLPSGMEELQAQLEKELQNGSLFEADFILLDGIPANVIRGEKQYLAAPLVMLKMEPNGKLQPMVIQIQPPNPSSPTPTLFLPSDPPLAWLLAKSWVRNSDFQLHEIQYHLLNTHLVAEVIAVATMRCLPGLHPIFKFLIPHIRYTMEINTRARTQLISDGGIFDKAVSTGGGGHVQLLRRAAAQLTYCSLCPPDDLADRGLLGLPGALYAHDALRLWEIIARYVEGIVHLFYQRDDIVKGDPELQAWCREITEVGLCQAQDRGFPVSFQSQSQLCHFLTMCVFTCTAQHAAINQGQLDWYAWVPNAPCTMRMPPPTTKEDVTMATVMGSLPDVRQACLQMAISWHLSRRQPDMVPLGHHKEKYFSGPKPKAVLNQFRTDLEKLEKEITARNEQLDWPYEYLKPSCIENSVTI

[2] = biological target: T2, Polyunsaturated fatty acid lipoxygenase ALOX15 (Homo sapiens, UniProt P16050); test: Concentration that cause 50% activation of human reticulocyte 15-lipoxygenase (15-HLO)
T2 sequence (P16050 whole entry): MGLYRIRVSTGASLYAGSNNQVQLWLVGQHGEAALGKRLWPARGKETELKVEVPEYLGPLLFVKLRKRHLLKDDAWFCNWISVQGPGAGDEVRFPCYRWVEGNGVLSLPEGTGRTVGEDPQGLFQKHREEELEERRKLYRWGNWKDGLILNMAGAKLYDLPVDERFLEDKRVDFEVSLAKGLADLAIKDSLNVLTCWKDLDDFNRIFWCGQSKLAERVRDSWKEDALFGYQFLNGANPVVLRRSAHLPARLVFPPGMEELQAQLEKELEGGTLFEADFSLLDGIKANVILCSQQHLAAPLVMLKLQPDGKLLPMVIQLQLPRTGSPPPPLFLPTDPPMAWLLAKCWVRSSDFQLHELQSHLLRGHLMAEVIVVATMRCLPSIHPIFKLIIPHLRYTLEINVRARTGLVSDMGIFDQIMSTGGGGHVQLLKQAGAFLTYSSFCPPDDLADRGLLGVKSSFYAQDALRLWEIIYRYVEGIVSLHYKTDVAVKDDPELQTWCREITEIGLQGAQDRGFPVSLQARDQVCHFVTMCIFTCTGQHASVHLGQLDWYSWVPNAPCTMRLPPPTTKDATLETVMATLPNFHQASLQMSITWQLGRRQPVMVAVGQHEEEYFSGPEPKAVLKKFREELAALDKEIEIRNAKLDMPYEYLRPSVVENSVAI

[3] = biological target: T3, Polyunsaturated fatty acid lipoxygenase ALOX15 (Homo sapiens) (UniProt P16050); test: Compound was evaluated for the percent increase in activation concentration of human reticulocyte 15-lipoxygenase (15-HLO)
T3 sequence (whole entry): T2 sequence (P16050 whole entry)

[4] = biological target: T4, Polyunsaturated fatty acid lipoxygenase ALOX12 (Homo sapiens) (UniProt P18054); test: % inhibition against human platelet 12-lipoxygenase (12-HLO); details: concentration not given here
T4 sequence (whole entry): T1 sequence (P18054 whole entry)

[5] = biological target: T5, Seed linoleate 13S-lipoxygenase-1 (Glycine max) (UniProt P08170); test: % inhibition against soybean 1-lipoxygenase (SLO)
T5 sequence (whole entry): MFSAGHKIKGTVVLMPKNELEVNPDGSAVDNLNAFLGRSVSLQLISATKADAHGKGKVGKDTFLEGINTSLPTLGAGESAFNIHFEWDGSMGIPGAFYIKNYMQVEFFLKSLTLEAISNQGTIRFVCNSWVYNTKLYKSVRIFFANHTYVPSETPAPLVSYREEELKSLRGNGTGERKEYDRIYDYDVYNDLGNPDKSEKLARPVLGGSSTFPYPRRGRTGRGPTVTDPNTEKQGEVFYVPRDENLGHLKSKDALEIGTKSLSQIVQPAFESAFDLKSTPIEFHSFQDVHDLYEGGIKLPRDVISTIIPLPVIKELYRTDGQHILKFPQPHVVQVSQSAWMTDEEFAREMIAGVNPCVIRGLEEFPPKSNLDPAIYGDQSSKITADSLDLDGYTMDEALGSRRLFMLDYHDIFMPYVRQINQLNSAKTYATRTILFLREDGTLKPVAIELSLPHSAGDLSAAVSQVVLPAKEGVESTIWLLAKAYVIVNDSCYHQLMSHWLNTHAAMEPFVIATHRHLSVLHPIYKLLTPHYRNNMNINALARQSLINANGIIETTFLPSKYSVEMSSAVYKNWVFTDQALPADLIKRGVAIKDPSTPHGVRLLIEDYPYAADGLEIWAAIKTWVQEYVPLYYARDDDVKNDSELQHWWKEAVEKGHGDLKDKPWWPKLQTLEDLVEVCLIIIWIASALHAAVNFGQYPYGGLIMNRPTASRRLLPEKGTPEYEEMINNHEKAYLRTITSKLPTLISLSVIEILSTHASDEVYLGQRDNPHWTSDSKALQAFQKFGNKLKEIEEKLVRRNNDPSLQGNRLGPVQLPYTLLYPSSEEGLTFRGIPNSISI

[6] = biological target: T6, Seed linoleate 13S-lipoxygenase-1 (Glycine max, UniProt P08170); test: Inhibitory activity against soybean 1-lipoxygenase (SLO)
T6 sequence (P08170 whole entry): T5 sequence (whole entry)

[7] = biological target: T3, Polyunsaturated fatty acid lipoxygenase ALOX15 (Homo sapiens); test: Inhibitory activity against human reticulocyte 15-lipoxygenase (15-HLO); details: concentration not given here
[8] = biological target: T3, Polyunsaturated fatty acid lipoxygenase ALOX15 (Homo sapiens); test: Inhibitory activity against human reticulocyte 15-lipoxygenase (15-HLO); NI is no inhibition
[9] = biological target: T4, Polyunsaturated fatty acid lipoxygenase ALOX12 (Homo sapiens); test: percent inhibition against human platelet 12-lipoxygenase (12-HLO); NI is no inhibition
[10] = biological target: T5, Seed linoleate 13S-lipoxygenase-1 (Glycine max); test: percent inhibition against soybean 1-lipoxygenase (SLO);NI is no inhibition
[11] = Inhibition ratio of human reticulocyte 15-lipoxygenase (15-HLO)/ human platelet 12-lipoxygenase (12-HLO); NI is no inhibition

- IC50 [1]: 26000 nM
SMILES: CC(=O)c1cc(O)c(O)cc1C[C@@H](C)[C@@H](C)Cc1cc(O)c(O)cc1C(C)=O

- AC50 [2]: 200 nM
- activation [3]: 70%
- inhibition [4]: 0%
- inhibition [5]: 0%
SMILES: CCCCCC(=O)Oc1ccc(C[C@@H](C)[C@@H](C)Cc2ccc(OC(=O)CCCCC)c(OC(=O)CCCCC)c2)cc1OC(=O)CCCCC

- IC50 [1]: 430 nM
- IC50 [6]: 57 nM
SMILES: C[C@H](Cc1cc(O)c(O)cc1Br)[C@@H](C)Cc1cc(O)c(O)cc1Br

- inhibition [7]: 0%
- inhibition [4]: 0%
- inhibition [5]: 0%
SMILES: CCC(=O)Oc1cc(C[C@@H](C)[C@@H](C)Cc2cc(OC(=O)CC)c(OC(=O)CC)cc2[N+](=O)[O-])c([N+](=O)[O-])cc1OC(=O)CC

- IC50 [1]: 3100 nM
- IC50 [6]: 140 nM
SMILES: CCc1cc(O)c(O)cc1C[C@@H](C)[C@@H](C)Cc1cc(O)c(O)cc1CC

- inhibition [7]: 0%
- inhibition [4]: 0%
- inhibition [5]: 0%
SMILES: COc1cc(N)c(C[C@@H](C)[C@@H](C)Cc2cc(OC)c(OC)cc2N)cc1OC

- inhibition [8]: inactive
- inhibition [9]: inactive
- inhibition [10]: inactive
- inhibition [11]: inactive
SMILES: COc1cc(C[C@@H](C)[C@@H](C)Cc2cc(OC)c(OC)cc2C(C)=O)c(C(C)=O)cc1OC

- IC50 [1]: 14000 nM
- IC50 [6]: 170 nM
SMILES: COc1cc(C[C@@H](C)[C@@H](C)Cc2ccc(O)c(O)c2)ccc1O

- inhibition [8]: inactive
- inhibition [9]: inactive
- inhibition [10]: inactive
- inhibition [11]: inactive
SMILES: COc1cc(C[C@@H](C)[C@@H](C)Cc2cc(OC)c(OC)cc2NC(C)=O)c(NC(C)=O)cc1OC

- AC50 [2]: 300 nM
- activation [3]: 22%
- inhibition [4]: 0%
- inhibition [5]: 0%
SMILES: CCC(=O)Oc1ccc(C[C@@H](C)[C@@H](C)Cc2ccc(OC(=O)CC)c(OC(=O)CC)c2)cc1OC(=O)CC

- inhibition [8]: inactive
- inhibition [9]: inactive
- inhibition [10]: inactive
- inhibition [11]: inactive
SMILES: COc1cc(Br)c(C[C@@H](C)[C@@H](C)Cc2cc(OC)c(OC)cc2Br)cc1OC

- IC50 [1]: 2200 nM
- IC50 [6]: 140 nM
SMILES: C[C@H](Cc1ccc(O)c(O)c1)[C@@H](C)Cc1ccc2c(c1)OC(C)(C)O2

- inhibition [8]: inactive
- inhibition [9]: inactive
- inhibition [10]: inactive
- inhibition [11]: inactive
SMILES: COc1cc(Cl)c(C[C@@H](C)[C@@H](C)Cc2cc(OC)c(OC)cc2Cl)cc1OC

- inhibition [7]: 0%
- inhibition [4]: 0%
- inhibition [5]: 0%
SMILES: CC(=O)Oc1ccc(C[C@@H](C)[C@@H](C)Cc2ccc(OC(C)=O)c(OC(C)=O)c2)cc1OC(C)=O

SMILES: C[C@H](Cc1cc(O)c(O)cc1[N+](=O)[O-])[C@@H](C)Cc1cc(O)c(O)cc1[N+](=O)[O-]
- IC50 [1]: 360 nM

- IC50 [1]: 360 nM
- IC50 [6]: 65 nM
SMILES: C[C@H](Cc1cc(O)c(O)cc1Cl)[C@@H](C)Cc1cc(O)c(O)cc1Cl

- inhibition [7]: 0%
- inhibition [4]: 0%
- inhibition [5]: 0%
SMILES: C[C@H](Cc1ccc(OCOC(=O)C(C)(C)C)c(OCOC(=O)C(C)(C)C)c1)[C@@H](C)Cc1ccc(OCOC(=O)C(C)(C)C)c(OCOC(=O)C(C)(C)C)c1

- AC50 [2]: 300 nM
- activation [3]: 77%
- inhibition [4]: 0%
- inhibition [5]: 0%
SMILES: CCCC(=O)Oc1ccc(C[C@@H](C)[C@@H](C)Cc2ccc(OC(=O)CCC)c(OC(=O)CCC)c2)cc1OC(=O)CCC

- inhibition [8]: inactive
- inhibition [9]: inactive
- inhibition [10]: inactive
- inhibition [11]: inactive
SMILES: COc1ccc(C[C@@H](C)[C@@H](C)Cc2ccc(OC)c(OC)c2)cc1OC

- inhibition [7]: 0%
- inhibition [4]: 0%
- inhibition [5]: 0%
SMILES: COc1cc(C[C@@H](C)[C@@H](C)Cc2cc(OC)c(OC)cc2[N+](=O)[O-])c([N+](=O)[O-])cc1OC

- AC50 [2]: 500 nM
- activation [3]: 70%
- inhibition [4]: 0%
- inhibition [5]: 0%
SMILES: CC(C)C(=O)Oc1ccc(C[C@@H](C)[C@@H](C)Cc2ccc(OC(=O)C(C)C)c(OC(=O)C(C)C)c2)cc1OC(=O)C(C)C
